# According to PubChem BioAssay (NCI):
#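 The compound was tested at five concentrations on cells cultured in 96-well plates, with a 48-hour exposure period. The concentration for 50% growth inhibition is given as GI50. At the TGI there is no net growth.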
# Columns and labels:
# Experiment in all cases: NCI anticancer screen, dose series, 48 h
# [1] = tested on: 786-0 renal
# [2] = tested on: A498 renal
# [3] = tested on: A549 NSCLC
# [4] = tested on: ACHN renal
# [5] = tested on: BT-549 breast
# [6] = tested on: CAKI-1 renal
# [7] = tested on: CCRF-CEM leukemia
# [8] = tested on: COLO 205 colon
# [9] = tested on: DU-145 prostate
# [10] = tested on: EKVX NSCLC
# [11] = tested on: HCC-2998 colon
# [12] = tested on: HCT-116 colon
# [13] = tested on: HCT-15 colon
# [14] = tested on: HL-60(TB) leukemia
# [15] = tested on: HOP-62 NSCLC
# [16] = tested on: HOP-92 NSCLC
# [17] = tested on: HS 578T breast
# [18] = tested on: IGROV1 ovarian
# [19] = tested on: KM12 colon
# [20] = tested on: LOX IMVI melanoma
# [21] = tested on: M14 melanoma
# [22] = tested on: MALME-3M melanoma
# [23] = tested on: MCF7 breast
# [24] = tested on: MDA-MB-231 breast
# [25] = tested on: MDA-MB-435
# [26] = tested on: MDA-MB-468 breast
# [27] = tested on: MOLT-4 leukemia
# [28] = tested on: NCI-H226 lung
# [29] = tested on: NCI-H23 lung
# [30] = tested on: NCI-H460 lung
# [31] = tested on: NCI-H522 lung
# [32] = tested on: NCI/ADR-RES ovarian
# [33] = tested on: OVCAR-3 ovarian
# [34] = tested on: OVCAR-5 ovarian
# [35] = tested on: PC-3 prostate
# [36] = tested on: RPMI-8226 leukemia
# [37] = tested on: RXF 393 renal
# [38] = tested on: SF-268 CNS
# [39] = tested on: SF-295 CNS
# [40] = tested on: SF-539 CNS
# [41] = tested on: SK-MEL-2 melanoma
# [42] = tested on: SK-MEL-28 melanoma
# [43] = tested on: SK-MEL-5 melanoma
# [44] = tested on: SK-OV-3 ovarian
# [45] = tested on: SN12C renal
# [46] = tested on: SNB-19 CNS
# [47] = tested on: SNB-75 CNS
# [48] = tested on: SW-620 colon
# [49] = tested on: T-47D breast
# [50] = tested on: TK-10 renal
# [51] = tested on: U251 CNS
# [52] = tested on: UACC-257 melanoma
# [53] = tested on: UACC-62 melanoma
# [54] = tested on: UO-31 renal
smiles,measurement,setting,value
Cc1ccc(C2CC(c3ccc(S(=O)(=O)NCCNc4nc(Nc5ccc(F)cc5)nc(N(C)C)n4)cc3)=Nc3c(N)nc(N)nc3N2)cc1 (stereo not drawn),GI50,[1],7.06 µM
same,TGI,[1],> 100 µM
same,GI50,[2],> 100 µM
same,TGI,[2],> 100 µM
same,GI50,[3],> 100 µM
same,TGI,[3],> 100 µM
same,GI50,[4],> 100 µM
same,TGI,[4],> 100 µM
same,GI50,[5],5.46 µM
same,TGI,[5],59.4 µM
same,GI50,[6],8.06 µM
same,TGI,[6],> 100 µM
same,GI50,[7],2.81 µM
same,TGI,[7],> 100 µM
same,GI50,[8],11.5 µM
same,TGI,[8],> 100 µM
same,GI50,[9],> 100 µM
same,TGI,[9],> 100 µM
same,GI50,[10],5.84 µM
same,TGI,[10],> 100 µM
same,GI50,[11],2.93 µM
same,TGI,[11],41.1 µM
same,GI50,[12],3.81 µM
same,TGI,[12],> 100 µM
same,GI50,[13],4.95 µM
same,TGI,[13],> 100 µM
same,GI50,[14],2.94 µM
same,TGI,[14],20.2 µM
same,GI50,[15],> 100 µM
same,TGI,[15],> 100 µM
same,GI50,[16],2.54 µM
same,TGI,[16],21 µM
same,GI50,[17],19.4 µM
same,TGI,[17],> 100 µM
same,GI50,[18],64.4 µM
same,TGI,[18],> 100 µM
same,GI50,[19],4.56 µM
same,TGI,[19],> 100 µM
same,GI50,[20],2.09 µM
same,TGI,[20],5.11 µM
same,GI50,[21],4.56 µM
same,TGI,[21],> 100 µM
same,GI50,[22],4.65 µM
same,TGI,[22],33.2 µM
same,GI50,[23],3.08 µM
same,TGI,[23],> 100 µM
same,GI50,[24],3.86 µM
same,TGI,[24],> 100 µM
same,GI50,[25],8.79 µM
same,TGI,[25],> 100 µM
same,GI50,[26],2.72 µM
same,TGI,[26],8.52 µM
same,GI50,[27],2.2 µM
same,TGI,[27],7.53 µM
same,GI50,[28],> 100 µM
same,TGI,[28],> 100 µM
same,GI50,[29],78.8 µM
same,TGI,[29],> 100 µM
same,GI50,[30],4.76 µM
same,TGI,[30],> 100 µM
same,GI50,[31],21.3 µM
same,TGI,[31],> 100 µM
same,GI50,[32],> 100 µM
same,TGI,[32],> 100 µM
same,GI50,[33],9.93 µM
same,TGI,[33],> 100 µM
same,GI50,[34],> 100 µM
same,TGI,[34],> 100 µM
same,GI50,[35],3.33 µM
same,TGI,[35],> 100 µM
same,GI50,[36],2.94 µM
same,TGI,[36],> 100 µM
same,GI50,[37],2.27 µM
same,TGI,[37],9.12 µM
same,GI50,[38],7.53 µM
same,TGI,[38],> 100 µM
same,GI50,[39],6.6 µM
same,TGI,[39],> 100 µM
same,GI50,[40],3.29 µM
same,TGI,[40],78.9 µM
same,GI50,[41],11.2 µM
same,TGI,[41],77.7 µM
same,GI50,[42],26.9 µM
same,TGI,[42],> 100 µM
same,GI50,[43],4.98 µM
same,TGI,[43],20.6 µM
same,GI50,[44],> 100 µM
same,TGI,[44],> 100 µM
same,GI50,[45],> 100 µM
same,TGI,[45],> 100 µM
same,GI50,[46],13.1 µM
same,TGI,[46],> 100 µM
same,GI50,[47],> 100 µM
same,TGI,[47],> 100 µM
same,GI50,[48],8.04 µM
same,TGI,[48],> 100 µM
same,GI50,[49],8.75 µM
same,TGI,[49],> 100 µM
same,GI50,[50],> 100 µM
same,TGI,[50],> 100 µM
same,GI50,[51],7.08 µM
same,TGI,[51],> 100 µM
same,GI50,[52],26 µM
same,TGI,[52],> 100 µM
same,GI50,[53],20.9 µM
same,TGI,[53],> 100 µM
same,GI50,[54],> 100 µM
same,TGI,[54],> 100 µM
